IC50 data for 23 molecules are collected here from patent US12202818B2, “Compounds and methods for CD73 modulation and indications therefor” (Opna Bio SA, priority 2020, dated 2025).

Assay [1] concerns the target T1, Human CD73 (amino acid residues 27-549) (Homo sapiens, UniProt P21589).
T1 construct: Human CD73 (amino acid residues 27-549); His tag (N); made in house; host or cells: E. coli
T1 sequence (P21589 27-549): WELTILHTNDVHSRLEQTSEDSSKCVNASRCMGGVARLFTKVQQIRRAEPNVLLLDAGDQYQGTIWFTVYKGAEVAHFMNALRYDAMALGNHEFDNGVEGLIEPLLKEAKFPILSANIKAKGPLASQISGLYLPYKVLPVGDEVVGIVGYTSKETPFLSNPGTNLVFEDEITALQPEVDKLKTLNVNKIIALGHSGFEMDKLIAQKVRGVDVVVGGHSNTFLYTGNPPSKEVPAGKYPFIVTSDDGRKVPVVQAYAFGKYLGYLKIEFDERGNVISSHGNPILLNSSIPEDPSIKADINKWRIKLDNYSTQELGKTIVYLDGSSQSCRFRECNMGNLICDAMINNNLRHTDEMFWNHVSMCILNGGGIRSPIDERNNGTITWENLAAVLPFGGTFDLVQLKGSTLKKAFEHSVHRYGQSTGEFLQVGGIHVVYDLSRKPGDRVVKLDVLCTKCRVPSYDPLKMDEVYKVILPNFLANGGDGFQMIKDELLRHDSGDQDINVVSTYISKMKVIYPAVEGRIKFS
The experiment in a line: CD73 enzymatic assay (luciferase-based indirect assay, CellTiter-Glo). Type of assay: biochemical. As to conditions: 0.4 nM CD73, 150 μM AMP, 1 hour at room temperature. The method, boiled down:
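N-His human CD73 (27-549) expressed in E. coli, 0.4 nM, incubated with 150 μM AMP and compound in 50 mM HEPES pH 7.4, 0.01% Tween-20, 1 h at RT. Remaining AMP read via CellTiter-Glo luminescence with 1 μM ATP after 30 min; IC50 from nonlinear regression of % inhibition.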
(In general: In ATP-based viability assays light output follows the ATP content of the culture.)

Assay [2] concerns the target T2, human CD73 (Homo sapiens, UniProt P21589).
T2 construct: expressed in transfected cells
T2 sequence (P21589 27-549): T1 sequence (P21589 27-549)
The experiment in a line: Inhibitor activity against CD73 in cell based assay (CD73 expressing CHO-K1 cells). As to conditions: CHO-K1 cells expressing human CD73, 150 μM AMP, 4 hours of incubation; read-out: CHO-K1 CELL_VARIANT: CD73 IC50. The method, boiled down:
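Stable human CD73 CHO-K1 cells, 1×10^4/well, exposed to an 8-point 1:3 compound series (top 10 μM, 0.2% DMSO) plus 150 μM AMP for 4 h. Remaining AMP in the supernatant was read by CellTiter-Glo 2.0 luminescence with 1 μM ATP after 30 min at room temperature. IC50 came from nonlinear regression of % inhibition against cell and media-only controls.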

For orientation: IC50 means the concentration at which inhibition is half-maximal. Take `O=C(NC1CCN(c2ccnc(O[C@@H]3CCN(c4cn[nH]c(=O)c4Cl)C3)c2)CC1)C1CC1` [P-0222, (R)-N-(1-(2-((1-(5-chloro-6-oxo-1,6-dihydropyridazin-4-yl)pyrrolidin-3-yl)oxy)pyridin-4-yl)piperidin-4-yl)cyclopropanecarboxamide]: the IC50 in assay [1] and in assay [2] was 0.001 to 10 µM each time.
As for `CCCNS(=O)(=O)c1ccc(-c2ccnc(O[C@@H]3CCN(c4cn[nH]c(=O)c4Cl)C3)c2)cc1` [P-0223, (R)-4-(2-((1-(5-chloro-6-oxo-1,6-dihydropyridazin-4-yl)pyrrolidin-3-yl)oxy)pyridin-4-yl)-N-propylbenzenesulfonamide], the IC50 in assay [1] and in assay [2] was 0.001 to 10 µM in each case.
For `Cc1cc(S(=O)(=O)NC2CC2)cc(F)c1-c1ccnc(O[C@@H]2CCN(c3cn[nH]c(=O)c3Cl)C2)c1` [P-0224, (R)-4-(2-((1-(5-chloro-6-oxo-1,6-dihydropyridazin-4-yl)pyrrolidin-3-yl)oxy)pyridin-4-yl)-N-cyclopropyl-3-fluoro-5-methylbenzenesulfonamide], the IC50 in assay [1] and in assay [2] was 0.001 to 10 µM in each case.
With `CCCNS(=O)(=O)c1cc(C)c(-c2ccnc(O[C@@H]3CCN(c4cn[nH]c(=O)c4Cl)C3)c2)c(F)c1` [P-0225, (R)-4-(2-((1-(5-chloro-6-oxo-1,6-dihydropyridazin-4-yl)pyrrolidin-3-yl)oxy)pyridin-4-yl)-3-fluoro-5-methyl-N-propylbenzenesulfonamide], the IC50 in assay [1] and in assay [2] was 0.001 to 10 µM throughout.
For `CCCNS(=O)(=O)N1CCN(c2ccnc(O[C@@H]3CCN(c4cn[nH]c(=O)c4Cl)C3)c2)CC1` [P-0226, (R)-4-(2-((1-(5-chloro-6-oxo-1,6-dihydropyridazin-4-yl)pyrrolidin-3-yl)oxy)pyridin-4-yl)-N-propylpiperazine-1-sulfonamide], the concentration for half-maximal inhibition (IC50) in assay [1] and in assay [2] was 0.001 to 10 µM each time.
As to `COc1cc(S(=O)(=O)NC2CC2)ccc1-c1ccnc(O[C@@H]2CCN(c3cn[nH]c(=O)c3Cl)C2)c1` [P-0227, (R)-4-(2-((1-(5-chloro-6-oxo-1,6-dihydropyridazin-4-yl)pyrrolidin-3-yl)oxy)pyridin-4-yl)-N-cyclopropyl-3-methoxybenzenesulfonamide], the half-maximal inhibitory concentration (IC50) in assay [1] and in assay [2] was 0.001 to 10 µM throughout.
For the molecule `CC(C)(O)Cn1cc(-c2ccnc(O[C@@H]3CCN(c4cn[nH]c(=O)c4Cl)C3)c2)cn1` [P-0228, (R)-4-chloro-5-(3-((4-(1-(2-hydroxy-2-methylpropyl)-1H-pyrazol-4-yl)pyridin-2-yl)oxy)pyrrolidin-1-yl)pyridazin-3(2H)-one], the IC50 in assay [1] and in assay [2] was 0.001 to 10 µM each time.
`O=c1[nH]ncc(N2CC[C@@H](Oc3cc(N4CCN(S(=O)(=O)NC5CC5)CC4)ccn3)C2)c1Cl` [P-0229, (R)-4-(2-((1-(5-chloro-6-oxo-1,6-dihydropyridazin-4-yl)pyrrolidin-3-yl)oxy)pyridin-4-yl)-N-cyclopropylpiperazine-1-sulfonamide]: the IC50 in assay [1] and in assay [2] was 0.001 to 10 µM throughout.
For the molecule `O=c1[nH]ncc(N2CC[C@@H](Oc3cc(-c4ccc(S(=O)(=O)NC5CC5)cc4Cl)ccn3)C2)c1Cl` [P-0230, (R)-3-chloro-4-(2-((1-(5-chloro-6-oxo-1,6-dihydropyridazin-4-yl)pyrrolidin-3-yl)oxy)pyridin-4-yl)-N-cyclopropylbenzenesulfonamide], the concentration for half-maximal inhibition (IC50) in assay [1] and in assay [2] was 0.001 to 10 µM in each case.
For the molecule `O=c1[nH]ncc(N2CC[C@@H](Oc3cc(-c4ccc(C(F)(F)F)nc4)ccn3)C2)c1Cl` [P-0231, (R)-4-chloro-5-(3-((6-(trifluoromethyl)-[3,4′-bipyridin]-2′-yl)oxy)pyrrolidin-1-yl)pyridazin-3(2H)-one], the IC50 in assay [1] and in assay [2] was 0.001 to 10 µM in each case.
Consider `O=c1[nH]ncc(N2CC[C@@H](Oc3cc(-c4ccc(C(F)(F)F)cc4Cl)ccn3)C2)c1Cl` [P-0232, (R)-4-chloro-5-(3-((4-(2-chloro-4-(trifluoromethyl)phenyl)pyridin-2-yl)oxy)pyrrolidin-1-yl)pyridazin-3(2H)-one], for which the 50% inhibitory concentration (IC50) in assay [1] and in assay [2] was 0.001 to 10 µM in each case.
With `CCCNS(=O)(=O)c1ccc(-c2ccnc(O[C@@H]3CCN(c4cn[nH]c(=O)c4Cl)C3)c2)c(Cl)c1` [P-0233, (R)-3-chloro-4-(2-((1-(5-chloro-6-oxo-1,6-dihydropyridazin-4-yl)pyrrolidin-3-yl)oxy)pyridin-4-yl)-N-propylbenzenesulfonamide], the half-inhibitory concentration (IC50) in assay [1] and in assay [2] was 0.001 to 10 µM in each case.
`O=c1[nH]ncc(N2CC[C@@H](Oc3cc(-c4ccc(S(=O)(=O)NC5CC5)cc4F)ccn3)C2)c1Cl` [P-0234, (R)-4-(2-((1-(5-chloro-6-oxo-1,6-dihydropyridazin-4-yl)pyrrolidin-3-yl)oxy)pyridin-4-yl)-N-cyclopropyl-3-fluorobenzenesulfonamide]: the IC50 in assay [1] and in assay [2] was 0.001 to 10 µM in each case.
With `Cc1cc(S(=O)(=O)NC2CC2)ccc1-c1ccnc(O[C@@H]2CCN(c3cn[nH]c(=O)c3Cl)C2)c1` [P-0235, (R)-4-(2-((1-(5-chloro-6-oxo-1,6-dihydropyridazin-4-yl)pyrrolidin-3-yl)oxy)pyridin-4-yl)-N-cyclopropyl-3-methylbenzenesulfonamide], the IC50 in assay [1] and in assay [2] was 0.001 to 10 µM in each case.
In the case of `O=c1[nH]ncc(N2CC[C@@H](Oc3cc(-c4ccc(C(F)(F)F)cc4)ccn3)C2)c1Cl` [P-0236, (R)-4-chloro-5-(3-((4-(4-(trifluoromethyl)phenyl)pyridin-2-yl)oxy)pyrrolidin-1-yl)pyridazin-3(2H)-one], the IC50 in assay [1] and in assay [2] was 0.001 to 10 µM throughout.
`O=c1[nH]ncc(N2CC[C@@H](Oc3cc(-c4ccc(OC(F)(F)F)cc4)ccn3)C2)c1Cl` [P-0237, (R)-4-chloro-5-(3-((4-(4-(trifluoromethoxy)phenyl)pyridin-2-yl)oxy)pyrrolidin-1-yl)pyridazin-3(2H)-one]: the IC50 in assay [1] and in assay [2] was 0.001 to 10 µM in each case.
Take `O=c1[nH]ncc(N2CC[C@@H](Oc3cc(-c4ccc(S(=O)(=O)NC5CC5)cc4)c(F)cn3)C2)c1Cl` [P-0238, (R)-4-(2-((1-(5-chloro-6-oxo-1,6-dihydropyridazin-4-yl)pyrrolidin-3-yl)oxy)-5-fluoropyridin-4-yl)-N-cyclopropylbenzenesulfonamide]: the IC50 in assay [1] and in assay [2] was 0.001 to 10 µM each time.
In the case of `CCCS(=O)(=O)N1CCN(c2ccnc(O[C@@H]3CCN(c4cn[nH]c(=O)c4Cl)C3)c2)CC1` [P-0239, (R)-4-chloro-5-(3-((4-(4-(propylsulfonyl)piperazin-1-yl)pyridin-2-yl)oxy)pyrrolidin-1-yl)pyridazin-3(2H)-one], the IC50 in assay [1] and in assay [2] was 0.001 to 10 µM throughout.
For `CCCNS(=O)(=O)c1ccc(-c2ccnc(O[C@@H]3CCN(c4cn[nH]c(=O)c4Cl)C3)c2)c(C)c1` [P-0240, (R)-4-(2-((1-(5-chloro-6-oxo-1,6-dihydropyridazin-4-yl)pyrrolidin-3-yl)oxy)pyridin-4-yl)-3-methyl-N-propylbenzenesulfonamide], the IC50 in assay [1] and in assay [2] was 0.001 to 10 µM throughout.
Turning to `O=c1[nH]ncc(N2CC[C@@H](Oc3cc(-c4ccc(S(=O)(=O)Nc5ccc(F)cc5)cc4)ccn3)C2)c1Cl` [P-0241, (R)-4-(2-((1-(5-chloro-6-oxo-1,6-dihydropyridazin-4-yl)pyrrolidin-3-yl)oxy)pyridin-4-yl)-N-(4-fluorophenyl)benzenesulfon-amide], the IC50 in assay [1] and in assay [2] was 0.001 to 10 µM each time.
Take `CCCCNS(=O)(=O)c1ccc(-c2ccnc(O[C@@H]3CCN(c4cn[nH]c(=O)c4Cl)C3)c2)cc1` [P-0242, (R)-N-butyl-4-(2-((1-(5-chloro-6-oxo-1,6-dihydropyridazin-4-yl)pyrrolidin-3-yl)oxy)pyridin-4-yl)benzenesulfonamide]: the IC50 in assay [1] and in assay [2] was 0.001 to 10 µM each time.
For the molecule `CCNS(=O)(=O)c1ccc(-c2ccnc(O[C@@H]3CCN(c4cn[nH]c(=O)c4Cl)C3)c2)cc1` [P-0243, (R)-4-(2-((1-(5-chloro-6-oxo-1,6-dihydropyridazin-4-yl)pyrrolidin-3-yl)oxy)pyridin-4-yl)-N-ethylbenzenesulfonamide], the IC50 in assay [1] and in assay [2] was 0.001 to 10 µM in each case.
As to `CNS(=O)(=O)c1ccc(-c2ccnc(O[C@@H]3CCN(c4cn[nH]c(=O)c4Cl)C3)c2)cc1` [P-0244, (R)-4-(2-((1-(5-chloro-6-oxo-1,6-dihydropyridazin-4-yl)pyrrolidin-3-yl)oxy)pyridin-4-yl)-N-methylbenzenesulfonamide], the IC50 in assay [1] and in assay [2] was 0.001 to 10 µM throughout.
